Test results as given in patent US20260042755A1, “GPR6 INVERSE AGONISTS” (MapLight Therapeutics, Inc., priority 2022, published 2026).
pIC50: −log10 of the molar value.

How the values were obtained:
GPR6 = target: T1, GPR6 (Homo sapiens, UniProt P46095); experiment: GPR6 antagonist functional cAMP assay (LANCE Ultra cAMP TR-FRET, CHO cells stably expressing GPR6); type: cell-based; settings: procedure of Example 24
T1 construct: expressed in transfected cells; host or cells: CHO cells
Outline: (§1)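 We measure cAMP by TR-FRET (665 nm) in cells held in glucose-containing Krebs-Ringer buffer with BSA and a PDE inhibitor, after a 45 min, 37 °C compound incubation. IC50s derive from a four-parameter logistic fit.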

GPR3 = target: T2, GPR3 (Homo sapiens, UniProt P46089); experiment: GPR3 antagonist functional cAMP assay (LANCE Ultra cAMP TR-FRET, CHO cells stably expressing GPR3); type: cell-based; settings: procedure of Example 24
T2 construct: expressed in transfected cells; host or cells: CHO cells
T2 sequence (P46089 whole entry, species assumed): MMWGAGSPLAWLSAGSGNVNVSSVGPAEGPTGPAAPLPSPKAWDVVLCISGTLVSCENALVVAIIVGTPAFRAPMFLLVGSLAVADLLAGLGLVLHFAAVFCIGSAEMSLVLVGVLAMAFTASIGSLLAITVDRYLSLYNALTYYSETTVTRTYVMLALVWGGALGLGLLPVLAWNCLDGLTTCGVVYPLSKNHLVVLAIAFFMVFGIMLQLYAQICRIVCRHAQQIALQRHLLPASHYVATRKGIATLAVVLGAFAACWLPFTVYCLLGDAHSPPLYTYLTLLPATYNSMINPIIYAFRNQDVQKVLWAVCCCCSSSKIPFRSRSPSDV
Outline: as §1

T1 sequence (P46095 whole entry): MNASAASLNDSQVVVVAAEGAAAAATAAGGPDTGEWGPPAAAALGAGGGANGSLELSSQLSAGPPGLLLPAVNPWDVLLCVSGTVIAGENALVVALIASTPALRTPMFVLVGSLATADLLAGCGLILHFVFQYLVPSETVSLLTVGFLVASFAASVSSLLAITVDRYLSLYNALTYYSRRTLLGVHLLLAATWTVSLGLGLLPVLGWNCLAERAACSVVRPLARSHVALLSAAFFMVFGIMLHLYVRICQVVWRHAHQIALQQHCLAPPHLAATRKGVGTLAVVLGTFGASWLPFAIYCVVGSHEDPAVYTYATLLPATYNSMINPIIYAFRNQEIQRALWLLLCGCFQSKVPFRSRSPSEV

Row | Compound | pIC50 (GPR6) | pIC50 (GPR3)
1 | Fc1ccc(OC2CC=C(c3nc4ccncc4nc3-c3ncco3)CC2)c(F)c1 (stereo not drawn) [Compound 301, 2-{2-[4-(2,4-difluorophenoxy)cyclohex-1-en-1-yl]pyrido[3,4-b]pyrazin-3-yl}-1,3-oxazole] | 4.52 to 6.00 | 4.52 to 6.00
2 | CC(=O)N1CCc2nc(C3CCC(Oc4ccc(F)cc4F)CC3)c(-c3ncco3)nc2C1 (stereo not drawn) [Compound 302, 1-{2-[4-(2,4-difluorophenoxy)cyclohexyl]-3-(1,3-oxazol-2-yl)-5H,6H,7H,8H-pyrido[3,4-b]pyrazin-6-yl}ethan-1-one] | 4.52 to 6.00 | 4.52 to 6.00
3 | CC(=O)N1CCc2nc(C3=CCC(Oc4ccc(F)cc4F)CC3)c(-c3ncco3)nc2C1 (stereo not drawn) [Compound 303, 1-{2-[4-(2,4-difluorophenoxy)cyclohex-1-en-1-yl]-3-(1,3-oxazol-2-yl)-5H,6H,7H,8H-pyrido[3,4-b]pyrazin-6-yl}ethan-1-one] | ≤ 4.52 | ≤ 4.52
4 | Fc1ccc(OC2CC=C(c3nc4cnccc4nc3-c3ncco3)CC2)c(F)c1 (stereo not drawn) [Compound 304, 2-{3-[4-(2,4-difluorophenoxy)cyclohex-1-en-1-yl]pyrido[3,4-b]pyrazin-2-yl}-1,3-oxazole] | 4.52 to 6.00 | ≤ 4.52
5 | CCn1cc(-c2nc3c(nc2N2CCC(Oc4ccc(F)cc4F)CC2)CCN(C[C@H](O)CO)C3)cn1 [Compound 305, (2S)-3-{2-[4-(2,4-difluorophenoxy)piperidin-1-yl]-3-(1-ethyl-1H-pyrazol-4-yl)-5H,6H,7H,8H-pyrido[3,4-b]pyrazin-6-yl}propane-1,2-diol] | 6.00 to 7.00 | 4.52 to 6.00
6 | CC(=O)N1CCc2nc(N3CCC(Oc4ccc(F)cc4F)CC3)c(C3=CCOC3)nc2C1 [Compound 306, 1-{2-[4-(2,4-difluorophenoxy)piperidin-1-yl]-3-(2,5-dihydrofuran-3-yl)-5H,6H,7H,8H-pyrido[3,4-b]pyrazin-6-yl}ethan-1-one] | 6.00 to 7.00 | 4.52 to 6.00
7 | CCn1cc(-c2nc3cnc(C(O)C(C)(C)O)cc3nc2N2CCC(Oc3ccc(F)cc3F)CC2)cn1 (stereo not drawn) [Compound 307, 1-{2-[4-(2,4-difluorophenoxy)piperidin-1-yl]-3-(1-ethyl-1H-pyrazol-4-yl)pyrido[3,4-b]pyrazin-7-yl}-2-methylpropane-1,2-diol] | 6.00 to 7.00 | 4.52 to 6.00
8 | Cn1cc(-c2nc3cnc(C(O)CN)cc3nc2N2CCC(Oc3ccc(F)cc3F)CC2)cn1 (stereo not drawn) [Compound 309, 2-amino-1-(2-(4-(2,4-difluorophenoxy)piperidin-1-yl)-3-(1-methyl-1H-pyrazol-4-yl)pyrido[3,4-b]pyrazin-7-yl)ethan-1-ol] | 6.00 to 7.00 | 4.52 to 6.00

Next, values leading:

Row | pIC50 (GPR6) | pIC50 (GPR3) | Compound
9 | > 7.00 | 4.52 to 6.00 | CCn1cc(-c2nc3c(nc2N2CCC(Oc4ccc(F)cc4F)CC2)CCN(C(=O)N(C)C)C3)cn1 [Compound 300, 2-[4-(2,4-difluorophenoxy)piperidin-1-yl]-3-(1-ethyl-1H-pyrazol-4-yl)-N,N-dimethyl-5H,6H,7H,8H-pyrido[3,4-b]pyrazine-6-carboxamide]
10 | > 7.00 | 4.52 to 6.00 | COc1nc(-c2nc3c(nc2N2CCC(Oc4ccc(F)cc4F)CC2)CCN(C(C)=O)C3)cnc1Cl [Compound 308]
11 | > 7.00 | 4.52 to 6.00 | C=CC(=O)N1CCc2nc(N3CCC(Oc4ccc(F)cc4F)CC3)c(-c3cnn(CC)c3)nc2C1 [Compound 310, 1-{2-[4-(2,4-difluorophenoxy)piperidin-1-yl]-3-(1-ethyl-1H-pyrazol-4-yl)-5H,6H,7H,8H-pyrido[3,4-b]pyrazin-6-yl}prop-2-en-1-one]
12 | > 7.00 | 4.52 to 6.00 | CCn1cc(-c2nc3c(nc2N2CCC(Oc4ccc(F)cc4F)CC2)CCN(C(=O)CO)C3)cn1 [Compound 311, 1-{2-[4-(2,4-difluorophenoxy)piperidin-1-yl]-3-(1-ethyl-1H-pyrazol-4-yl)-5H,6H,7H,8H-pyrido[3,4-b]pyrazin-6-yl}-2-hydroxyethan-1-one]
